Laboratory results reported in patent publication EP0286825A2, “Use of 3'-fluro-3' deoxythymidine for the manufacture of a medicament for the treatment of virus infections” (Max-Planck-Gesellschaft zur Förderung der Wissenschaften …, priority 1987, dated 1988).
Like-named read-outs stand apart in the source and are kept apart here. One block for each compound: values may come before it.

Assays:
[1] = system: HIV; test: microbe, parasite or virus in culture; type: cell-based; conditions: for EC50: Human immunodeficiency virus 1, MT4, read-out: concentration of active material that protects the cells with half maximum action against the pathogenic effect of HIV
[2] = system: MT₄-cells; test: Toxicity to MT4 cells in the absence of HIV, incorporation of thymidine; conditions: MT₄ cells without HIV, Fig. 5, compared with the other compounds
[3] = system: HIV; type: cell-based
[4] = system: HIV; type: cell-based; remark: listed apart in the source
[5] = system: peripheral blood lymphocytes; test: Viability and cell number of the PHA stimulated peripheral blood lymphocytes; conditions: counts from thymidine incorporation

- EC50 [1]: < 0.002 µg/mL
SMILES: Cc1cn([C@H]2C[C@H](F)[C@@H](CO)O2)c(=O)[nH]c1=O

SMILES: [N-]=[N+]=N[C@H]1C[C@H](n2cnc3c(O)ncnc32)O[C@@H]1CO [3ʹ-azido-2ʹ,3ʹ-dideoxyinosine]
- rate of thymidine incorporation in the HIV infected cell line ([1]; Fig. 5): nearly equalled that of non-infected T₄ cell lines
- Toxicity [2]: higher

- EC50 ([1]; MT₄-cells, 1:40 dilution of the HIV parent liquid, thymidine incorporation): < 1.5 µg/mL
SMILES: Nc1nc2c(ncn2[C@H]2C[C@H](F)[C@@H](CO)O2)c(=O)[nH]1 [3ʹ-fluoro-2ʹ,3ʹ-dideoxyguanosine]
- in vitro therapeutic index ([1]; toxic concentration compared with antiviral concentration, MT₄ human cell line): approximately 400

SMILES: Cc1cn([C@H]2C[C@H](N=[N+]=[N-])[C@@H](CO)O2)c(=O)[nH]c1=O [AZT, azido-thymidine]
- %B/Bo ([3]; AZT 0.01 uM, day 4): 54.2%
- ng p24/ml ([3]; AZT 0.01 uM, day 4): 3.6 ng p24/ml
- %B/Bo ([3]; AZT 0.01 uM, day 7): 62.3%
- ng p24/ml ([3]; AZT 0.01 uM, day 7): 2.7 ng p24/ml
- %B/Bo ([3]; AZT 0.01 uM, day 11): 12.0%
- ng p24/ml ([3]; AZT 0.01 uM, day 11): 20 ng p24/ml
- %B/Bo ([3]; AZT 0.01 uM, day 14): 6.2%
- ng p24/ml ([3]; AZT 0.01 uM, day 14): 20 ng p24/ml
- %B/Bo ([3]; AZT 0.1 uM, day 4): 53.0%
- ng p24/ml ([3]; AZT 0.1 uM, day 4): 3.7 ng p24/ml
- %B/Bo ([3]; AZT 0.1 uM, day 7): 75.2%
- ng p24/ml ([3]; AZT 0.1 uM, day 7): 1.6 ng p24/ml
- %B/Bo ([3]; AZT 0.1 uM, day 11): 78.6%
- ng p24/ml ([3]; AZT 0.1 uM, day 11): 1.3 ng p24/ml
- %B/Bo ([3]; AZT 0.1 uM, day 14): 67.1%
- ng p24/ml ([3]; AZT 0.1 uM, day 14): 2.3 ng p24/ml
- %B/Bo ([3]; AZT 1 uM, day 4): 53.1%
- ng p24/ml ([3]; AZT 1 uM, day 4): 3.7 ng p24/ml
- %B/Bo ([3]; AZT 1 uM, day 7): 68.2%
- ng p24/ml ([3]; AZT 1 uM, day 7): 2.2 ng p24/ml
- %B/Bo ([3]; AZT 1 uM, day 11): 79.8%
- ng p24/ml ([3]; AZT 1 uM, day 11): 1.25 ng p24/ml
- %B/Bo ([3]; AZT 1 uM, day 14): 84.4%
- ng p24/ml ([3]; AZT 1 uM, day 14): 0.94 ng p24/ml
- CPM/1+06 CELLS ([4]; AZT 0.01UM, day 7): 1.78E+03 CPM/1+06 CELLS
- CPM/ml ([4]; AZT 0.01UM, day 7): 5.9E+03 CPM/ml
- CPM/1+06 CELLS ([4]; AZT 0.01UM, day 11): 7.19E+03 CPM/1+06 CELLS
- CPM/ml ([4]; AZT 0.01UM, day 11): 2.8E+04 CPM/ml
- CPM/1+06 CELLS ([4]; AZT 0.01UM, day 14): 2.41E+04 CPM/1+06 CELLS
- CPM/ml ([4]; AZT 0.01UM, day 14): 1.4E+05 CPM/ml
- CPM/1+06 CELLS ([4]; AZT 0.1UM, day 7): 8.64E+01 CPM/1+06 CELLS
- CPM/ml ([4]; AZT 0.1UM, day 7): 3.5E+02 CPM/ml
- CPM/1+06 CELLS ([4]; AZT 0.1UM, day 11): 2.49E+02 CPM/1+06 CELLS
- CPM/ml ([4]; AZT 0.1UM, day 11): 1.2E+03 CPM/ml
- CPM/1+06 CELLS ([4]; AZT 0.1UM, day 14): 9.78E+02 CPM/1+06 CELLS
- CPM/ml ([4]; AZT 0.1UM, day 14): 3.9E+03 CPM/ml
- CPM/1+06 CELLS ([4]; AZT 1UM, day 7): 7.66E+02 CPM/1+06 CELLS
- CPM/ml ([4]; AZT 1UM, day 7): 2.9E+03 CPM/ml
- CPM/ml ([4]; AZT 1UM, day 11): -8.1E+03 CPM/ml
- CPM/1+06 CELLS ([4]; AZT 1UM, day 14): 1.55E+02 CPM/1+06 CELLS
- CPM/ml ([4]; AZT 1UM, day 14): 5.7E+02 CPM/ml
- toxicity against the PBL [5]: do not show toxicity
